Source: patent publication US9968698B2, “Charged singlet-oxygen sensitizers and oppositely-charged surfactants” (STC.UNM, priority 2013, dated 2018)
Several values for one entry are separate records, joined by “and”; a condition that tells them apart may be missing. Identical values can stand only once.

Key:
[1] = tested on: S. aureus (ATCC 25923); assay: Live/dead flow cytometry biocidal assay with samples UVA pre-irradiated before bacterial exposure, Example 2; assay type: cell-based, Staphylococcus aureus; details: for biocidal activity vs. S. aureus after pre-irradiation: then 15 minutes UVA with bacteria
Experimental: (§1) All media and buffers were prepared using deionized water with a resistivity exceeding 18 MΩ*cm. Nutrient Broth 234000 (Difco) was prepared according to manufacturer's instructions, and Nutrient Agar was prepared upon the addition of 8 g/L Bacto agar (Difco). Both S. aureus (ATCC 25923) and E. coli (ATCC 29425) were grown from glycerol-preserved stock. The frozen stock aliquots were generated from first-generation cultures of the original ATCC lyophilate, which were grown in Nutrient Broth containing 20% glycerol, and subsequently stored at −70° C. The cells were grown by inoculating the glycerol stock on Difco Nutrient Agar for 24 hours at 37° Celsius. For biocidal testing, S. aureus and E. coli cells were scraped off the agar plate with a flame-sterilized wire and transferred to nutrient broth. Cells were incubated in an Orbital Incubator Shaker (American Instruments, Lafayette, Calif.) at 37° Celsius in nutrient broth with rapid shaking (250 rpm) for 18 hours. Following the 18-hour incubation period, cells were separated from the nutrient broth by two 15-minute centrifugations at 4,400 rpm, each of which was followed by removal of the supernatant and re-suspension in 30 mL 0.85% NaCl.
Flow cytometry was implemented to determine the cell concentration of the 0.85% NaCl-suspended bacterial stock solutions. An Accuri C6 flow cytometer (Becton Dickinson, Franklin Lakes, N.J.) equipped with a blue laser that excites at 488 nm was utilized. Two filters were used: a green fluorescence filter (FL-1: 530 nm) and a red fluorescence filter (FL-3: 670 nm long pass). Two thresholds were used, a primary threshold and a secondary threshold. […] Flow cytometer core size in all experiments was 10 μm, with a flow rate of 14 μL/minute. […]
(§2) The solid compound OPE 1, as a dichloride salt, was dissolved in filtered water with a resistivity of 18 MΩ*cm to a final concentration of 10 μM. […] Progress of the photolysis was monitored by UV-visible absorption spectroscopy with a Molecular Devices Spectramax M5 spectrophotometer (Molecular Devices, Sunnyvale, Calif.). […]

[2] = tested on: E. coli (ATCC 29425); assay: as above; assay type: cell-based, Escherichia coli; details: for biocidal activity vs. E. coli after pre-irradiation: then 30 minutes UVA with bacteria
Experimental: as §1
Flow cytometry was implemented to determine the cell concentration of the 0.85% NaCl-suspended bacterial stock solutions. An Accuri C6 flow cytometer (Becton Dickinson, Franklin Lakes, N.J.) equipped with a blue laser that excites at 488 nm was utilized. Two filters were used: a green fluorescence filter (FL-1: 530 nm) and a red fluorescence filter (FL-3: 670 nm long pass). Two thresholds were used, a primary threshold and a secondary threshold. […] Flow cytometer core size in all experiments was 10 μm, with a flow rate of 14 μL/minute. Using these settings, 20 μL of un-stained stock solution was sufficient for identifying the stock concentration of cells.
For biocidal testing, the stock solution was either diluted or concentrated to 2×10^7 cells/mL. Equal volumes of the sample and bacterial solution were added to glass tubes prior to analysis. Cells were stained with 5 mM SYTO 21 (live stain; Life Technologies, Grand Island, N.Y.) and […] Propidium iodide (dead stain; Life Technologies, Grand Island, N.Y.) for 15-30 minutes prior to flow cytometry anaylsis. An example of the flow cytometry gating scheme for E. coli is shown below, in FIG. 14. […]
as §2

[3] = in water; cited from earlier work
[4] = tested on: S. aureus; assay: Confocal microscopy of bacteria irradiated with UVA for 15 minutes, Example 2; assay type: cell-based, Staphylococcus aureus; details: UVA light for 15 minutes, FIG. 22
Experimental: The solid compound OPE 1, as a dichloride salt, was dissolved in filtered water with a resistivity of 18 MΩ*cm to a final concentration of 10 μM. The solution was then exposed to UVA radiation via a Luzchem LZC-ORG photoreactor (Luzchem Research, Ontario, Canada) in a quartz tube or cuvette. This photoreactor was configured with 10 LZC-UVA lamps (>5.3 mW-cm^−2 over 316-400 nm, Luzchem Research, Ontario, Canada) with a fan-powered exhaust to keep a stable temperature and a carousel for homogeneous irradiation of samples. Progress of the photolysis was monitored by UV-visible absorption spectroscopy with a Molecular Devices Spectramax M5 spectrophotometer (Molecular Devices, Sunnyvale, Calif.). Sodium dodecyl sulfate (SDS) was obtained from Sigma Aldrich. For the OPE 1-SDS complexes, 10 μM OPE 1 was mixed with 40 μM SDS, 0.24% of the critical micelle concentration (CMC). S. aureus samples were exposed to a OPE 1-SDS complex where the concentration of SDS was 0.33 mM, as they were much more resilient to killing caused by SDS. Samples were irradiated for 0, 30, 60, and 120 minutes prior to exposure to bacteria. Once exposed to OPE 1 or 1-SDS complex, E. coli and S. aureus samples were irradiated with UVA in the photoreactor for 30 minutes and 15 minutes, respectively.

[5] = tested on: E. coli; assay: Confocal fluorescence microscopy of exposed bacteria, Example 2; assay type: cell-based, Escherichia coli; details: UVA, versus untreated cells, FIG. 20
[6] = UVA photolysis under the same conditions, without surfactant; cited from earlier work
[7] = tested on: Staphylococcus aureus (ATCC 10832); assay: Biocidal testing by standard plating (colony counts relative to UVA negative control), Example 1; assay type: cell-based; details: FIG. 4
Experimental: (§3) All media and buffers were prepared with deionized water with a resistivity of at least 18 MΩ cm. Nutrient broth 234000 (Difco) was prepared according to manufacturer's instructions. Nutrient agar was prepared upon the addition of 8 g/L bacto agar (Difco). Staphylococcus aureus (ATCC 10832) and Escherichia coli (ATCC 29425) were both grown from glycerol-preserved stock which originated from first-generation cultures of original ATCC lyophilates grown in nutrient broth (containing 20% glycerol) and subsequently stored at −70° C. Cells of the aforementioned strains were grown upon the inoculation of glycerol stock on Difco nutrient agar at 37° C. for 24 hours. Cell culture preparation for biocidal testing entailed scraping S. aureus or E. coli colonies off their agar plates and transferring them to nutrient broth for growth. Cells were then incubated in an Orbital Incubator Shaker (American Instruments, Lafayette, Calif.) for 18 h at 37° C. with rapid shaking (250 rpm). Following the incubation period, cells were washed by two 15 min centrifugations at 4,400 rpm; in each case, supernatant was replaced by 30 mL of 0.85% NaCl following pellet formation.
(§4) The bacterial stock solution was either diluted or concentrated to 2×10^7 cells/mL. Samples were diluted by the addition of 0.85% NaCl, while concentrating the sample entailed centrifugation to pellet the cells, followed by removal of the necessary amount of supernatant and subsequent resuspension of the pellet by vortexing. 500 μL of bacterial solution was added to glass vials with 500 μL of sample solution to reach a final volume of 1 mL prior to analysis. Samples tested contained 10 μM OPE, 40 μM TTAB, or both 10 μM OPE and 40 μM TTAB. Biocidal activity under UVA irradiation was determined using a Luzchem LZC-ORG photoreactor (Luzchem Research, Ontario, Canada). This photoreactor was configured with 10 UVA lamps (0.975 mW/cm^2 over 316-400 nm) with a fan-powered exhaust to keep a stable temperature of 28° C. and a rotating carousel for homogeneous irradiation of samples. Samples exposed in the dark were kept at room temperature, 25° C. 70% Ethanol was used as a positive control, and a 60 minute UVA-irradiated sample of bacteria was used as a negative control.
(§5) The results of the live/dead assay were verified by confocal fluorescence microscopy using a Zeiss Confocal microscope with an Ar laser (488 nm) and a HeNe laser ([…]) as excitation sources. Standard plating techniques were utilized to validate flow cytometry data. This entailed pipetting and spreading 50 μL aliquots of diluted, unstained sample, onto nutrient agar plates. The plates were incubated at 37° C. for 18 hours, colonies were counted, and viabilities were calculated relative to the UVA negative control. […]

[8] = tested on: Staphylococcus aureus (ATCC 10832); assay: Live/dead flow cytometry biocidal assay, Example 1; assay type: cell-based; details: 60 minutes, 10 μM OPE
Experimental: All media and buffers were prepared with deionized water with a resistivity of at least 18 MΩ cm. Nutrient broth 234000 (Difco) was prepared according to manufacturer's instructions. Nutrient agar was prepared upon the addition of 8 g/L bacto agar (Difco). Staphylococcus aureus (ATCC 10832) and Escherichia coli (ATCC 29425) were both grown from glycerol-preserved stock which originated from first-generation cultures of original ATCC lyophilates grown in nutrient broth (containing 20% glycerol) and subsequently stored at −70° C. Cells of the aforementioned strains were grown upon the inoculation of glycerol stock on Difco nutrient agar at 37° C. for 24 hours. […]
The bacterial stock solution was either diluted or concentrated to 2×10^7 cells/mL. […] Biocidal activity under UVA irradiation was determined using a Luzchem LZC-ORG photoreactor (Luzchem Research, Ontario, Canada). […]
Flow cytometry gating and analysis were carried out as performed in previous studies of biocidal activity of OPEs (see Z. Malik, J. Hanania, Y. Nitzan New trends in photobiology bactericidal effects of photoactivated porphyrins—An alternative approach to antimicrobial drugs, Journal of Photochemistry and Photobiology B: Biology 1990, 5 (3-4), 281-293). […] 100,000 events were recorded in each sample. […]

[9] = tested on: Escherichia coli (ATCC 29425); assay: Biocidal testing by standard plating (colony counts relative to UVA negative control), Example 1; assay type: cell-based; details: 40 μM TTAB alone, one hour of exposure, FIG. 5
Experimental: as §3, §4, §5

[10] = tested on: E. coli; details: reported value, against E. coli; cited from earlier work
[11] = tested on: S. aureus; details: reported value, against S. aureus; cited from earlier work
[12] = 0.33 mM SDS alone, control experiment
[13] = 10 μM OPE 1, 30 minutes of UVA irradiation prior to bacterial exposure
[14] = 10 μM OPE 1, 2 hours of UVA pre-exposure

For `CCCCCCCCCCCCOS(=O)(=O)[O-].[Na+]` [SDS, sodium dodecyl sulfate], the “effect on S. aureus” value [1, 12] was “viable”, the “E. coli cells killed” value ([2]; 40 μM SDS alone, control experiment) was ~40% and the “effect on E. coli” value [2, 12] was “significant killing”. For the same compound, the critical micelle concentration [3] was ~8.3 mM.

For `C[N+](C)(C)CCOc1ccc(C#Cc2ccc(C#Cc3ccc(OCC[N+](C)(C)C)cc3)cc2)cc1` [OPE 1], the “clustering of S. Aureus (stress response)” value [4] was “clusters of large numbers of cells”, the “filamentous growth of E. coli (stress response)” value [5] was “more likely to undergo filamentous growth than untreated cells” and the “biocidal activity vs. S. aureus after pre-irradiation” value [1, 13] was “significant drop in biocidal activity”. For the same compound, the “biocidal activity vs. S. aureus after pre-irradiation” value [1, 14] was “entirely lost”, the “time of photolysis until absorbance diminished and fluorescence completely quenched” value [6] was ≤ 2 min and the “biocidal activity vs. E. coli after pre-irradiation” value [2, 13] was “significant drop in biocidal activity”. For the same compound, the “biocidal activity vs. E. coli after pre-irradiation” value [2, 14] was “nearly lost”.

With `O=S(=O)(O)CCCOc1ccc(C#Cc2ccc(C#Cc3ccc(OCCCS(=O)(=O)O)cc3)cc2)cc1` [OPE] the S. aureus killed ([7]; in the dark, 60 minutes, 10 μM OPE (complex: plus 40 μM TTAB)) was 41.3%, the S. aureus killed ([7]; in the light (UVA), 60 minutes, 10 μM OPE (complex: plus 40 μM TTAB)) was 68.1% and the “S. aureus killed (immediate killing by flow cytometry)” value ([8]; in the dark) was 23.2%. The “S. aureus killed (immediate killing by flow cytometry)” value ([8]; under UVA irradiation) was 35.1%.

In the case of `CCCCCCCCCCCCCC[N+](C)(C)C.[Br-]` [TTAB, tetradecyl trimethylammonium bromide], the E. coli killed [9] is listed as 56.1% and 56%, the S. aureus killed ([7]; 40 μM TTAB alone, one hour of exposure) is listed as 8.7% and 9% and the minimum inhibitory concentration [10] is listed as 5 mM. For the same compound, the minimum inhibitory concentration [11] was 5 mM and the critical micelle concentration [3] was 4.3 mM.
